Test results taken from the supplement of paper PMC10307832.

Legend:
Test in all cases: relative viability (nuclei count vs DMSO), 5 days (fraction); higher = more cells survive
[1] = compound: COc1cc(Nc2ncc(F)c(Nc3ccc4c(n3)NC(=O)C(C)(C)O4)n2)cc(OC)c1OC [R406] + O=C(c1cc(Cc2n[nH]c(=O)c3ccccc23)ccc1F)N1CCN(C(=O)C2CC2)CC1 [Olaparib] (partner 8 µM)
How it was run: (§1)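 Cells from lung cancer lines were seeded into 1536-well plates and, one day later, dosed by pin tool. Treatments were either a single drug or a fixed dose of an anchor drug with five library-drug doses (not always all listed) in √10 steps. After 5 days, nuclei were stained in a one-step fixation (final 0.05% Triton X-100, 1% formaldehyde, 1 ug/ml Hoechst) and counted on 4× images, and relative viability is the treated-to-vehicle nuclei ratio, as the median of duplicate plates.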

[2] = compound: COc1cc(Nc2ncc(F)c(Nc3ccc4c(n3)NC(=O)C(C)(C)O4)n2)cc(OC)c1OC [R406] + CS(=O)(=O)N1CCN(Cc2cc3nc(-c4cccc5[nH]ncc45)nc(N4CCOCC4)c3s2)CC1 [Pictilisib] (partner 1 µM)
How it was run: as §1

[3] = compound: COc1cc(Nc2ncc(F)c(Nc3ccc4c(n3)NC(=O)C(C)(C)O4)n2)cc(OC)c1OC [R406] + CC(C)C[C@H](NC(=O)[C@H](Cc1ccccc1)NC(=O)c1cnccn1)B(O)O [Bortezomib] (partner 0.002 µM)
How it was run: as §1

[4] = compound: O=C(/C=C/c1cccnc1)NCCCCC1CCN(C(=O)c2ccccc2)CC1 [Daporinad] + Cc1nc(Nc2ncc(C(=O)Nc3c(C)cccc3Cl)s2)cc(N2CCN(CCO)CC2)n1 [Dasatinib] (partner 0.075 µM)
How it was run: as §1

Cell Line | relative viability ([1]; first compound 0.08 µM) | relative viability ([1]; first compound 0.253 µM) | relative viability ([1]; first compound 0.8 µM) | relative viability ([1]; first compound 2.53 µM) | relative viability ([1]; first compound 8 µM) | relative viability ([2]; first compound 0.08 µM) | relative viability ([2]; first compound 0.253 µM) | relative viability ([2]; first compound 0.8 µM) | relative viability ([2]; first compound 2.53 µM) | relative viability ([2]; first compound 8 µM) | relative viability ([3]; first compound 0.08 µM) | relative viability ([3]; first compound 0.253 µM) | relative viability ([3]; first compound 0.8 µM) | relative viability ([3]; first compound 2.53 µM) | relative viability ([3]; first compound 8 µM) | relative viability ([4]; first compound 0.0005 µM) | relative viability ([4]; first compound 0.001581 µM) | relative viability ([4]; first compound 0.005 µM) | relative viability ([4]; first compound 0.01581 µM)
NCI-H647 | 0.423 | 0.633 | 0.643 | 0.231 | 0.0598 | 0.437 | 0.402 | 0.418 | 0.276 | 0.147 | 0.89 | 1.02 | 1.59 | 0.0846 | 0.188 | 0.146 | 0.27 | 0.282 | 0.196
A-427 | 0.717 | 0.762 | 0.853 | 0.682 | 0.435 | 0.72 | 0.846 | 0.69 | 0.548 | 0.546 | 0.948 | 1.01 | 1.03 | 0.526 | 0.74 | 0.613 | 0.841 | 0.618 | 0.338
EMC-BAC-2 | 0.46 | 0.547 | 0.468 | 0.393 | 0.307 | 0.566 | 0.58 | 0.585 | 0.502 | 0.323 | 1.04 | 1.13 | 1.12 | 1.04 | 0.844 | 0.359 | 0.362 | 0.387 | 0.319
NCI-H460 | 0.363 | 0.577 | 0.441 | 0.434 | 0.341 | 0.33 | 0.426 | 0.38 | 0.224 | 0.259 | 0.96 | 1.33 | 1.58 | – | 0.486 | 0.575 | 0.639 | 0.489 | 0.505
LCLC-103H | 0.77 | 0.888 | 0.81 | 0.762 | 0.302 | 0.462 | 0.636 | 0.595 | 0.403 | 0.356 | 0.972 | 1.29 | 1.08 | 0.781 | 0.9 | 0.546 | 0.411 | 0.465 | 0.502
HCC-827 | 0.724 | 0.663 | 0.667 | 0.522 | 0.545 | 0.944 | 0.735 | 1.11 | 0.687 | 0.862 | 1.06 | 1.12 | 1.12 | 1.11 | 1.02 | 0.399 | 0.283 | 0.294 | 0.344
NCI-H1355 | 0.675 | 0.8 | 0.82 | 0.569 | 0.374 | 0.521 | 0.571 | 0.557 | 0.211 | 0.313 | 1.23 | 1.29 | 1.44 | 1.02 | 0.957 | 0.664 | 0.674 | 0.671 | 0.761
NCI-H1734 | 0.641 | 0.654 | 0.688 | 0.542 | 0.417 | 0.434 | 0.478 | 0.593 | 0.248 | 0.281 | 0.828 | 1.16 | 1.05 | 0.344 | 0.269 | 0.566 | 0.489 | 0.495 | 0.462
HARA | 0.826 | 0.496 | 0.705 | 0.779 | 0.17 | 0.416 | 0.349 | 0.405 | 0.248 | 0.187 | 1.07 | 1.21 | 1.15 | 0.991 | 0.389 | 0.3 | 0.285 | 0.284 | 0.339
HCC-15 | 0.653 | 0.839 | 0.675 | 0.725 | 0.505 | 0.702 | 0.896 | 0.827 | – | 0.693 | 1.02 | 1.16 | 1.25 | – | 0.962 | 0.62 | 0.707 | 0.686 | 0.837
LCLC-97TM1 | 0.371 | 0.465 | 0.534 | 0.253 | 0.179 | 0.174 | 0.172 | 0.218 | 0.133 | 0.148 | 0.718 | 0.659 | 0.793 | 0.489 | 0.207 | 0.77 | 0.89 | 0.865 | 0.844
SK-LU-1 | 0.441 | 0.44 | 0.464 | 0.249 | 0.213 | 0.46 | 0.658 | 0.546 | 0.277 | 0.173 | 1.16 | 1.32 | 1.09 | 0.384 | 0.544 | 0.209 | 0.184 | 0.204 | 0.235
NCI-H1651 | 0.19 | 0.193 | 0.177 | 0.173 | 0.172 | 0.512 | 0.652 | 0.727 | 0.249 | 0.251 | 0.921 | 1.06 | 0.9 | 0.935 | 0.948 | 0.419 | 0.433 | 0.439 | 0.446
NCI-H1793 | 0.781 | 0.794 | 0.946 | 0.356 | 0.144 | 0.367 | 0.354 | 0.492 | 0.168 | 0.23 | – | – | – | – | – | 0.43 | 0.397 | 0.418 | 0.499
NCI-H2023 | 0.437 | 0.49 | 0.474 | 0.4 | 0.163 | 0.239 | 0.243 | 0.257 | 0.0848 | 0.12 | 0.914 | 1.04 | 1.08 | 0.0862 | 0.29 | 0.504 | 0.711 | 0.631 | 0.72
LC-2-ad | 0.728 | 0.809 | 0.694 | 0.699 | 0.45 | 0.554 | 0.309 | 0.596 | 0.12 | 0.0919 | 0.973 | 1.09 | 0.987 | 0.111 | 0.133 | 0.622 | 0.539 | 0.68 | 0.765
NCI-H1703 | 0.298 | 0.474 | 0.355 | 0.277 | 0.124 | 0.229 | 0.207 | 0.278 | 0.214 | 0.187 | 0.451 | 0.32 | 0.588 | 0.183 | 0.167 | – | – | – | –
